Data as given in patent US7530461B2, “Esters of 5-aminolevulinic acid as photosensitizing agents in photochemotherapy” (PhotoCure ASA, priority 1995, dated 2009).
Entries after “also recorded” stand apart in the source; their conditions may differ.

Experiments:
[1] = test system: basal cell carcinoma (BCC) lesions and surrounding normal skin; assay: PpIX fluorescence in human BCC and surrounding normal skin by optical-fiber based system; type: in vivo; conditions: 20% for 4 hours, topical
Procedure: The PpIX fluorescence in the BCC lesions and surrounding normal skin of human patients was measured in situ by optical-fiber based system after topical application of 20% free ALA and its derivatives for various time intervals.
The PpIX fluorescence ratios between BCC lesions and surrounding normal skin after topical application of ALA or its esters (20% for 4 hours), was examined using methods described in previous examples.

[2] = test system: cervical intraepithelial lesions (CIN); assay: Fluorescence detection of cervical intraepithelial lesions using HAL; type: in vivo, human
Procedure: This study involved 32 non-pregnant women with histologically proven squamous intraepithelial lesions (CIN).
5 to 20 ml of a cold-cream containing 0.5% (w/w) HAL hydrochloride was applied locally by means of a cervical cap. Random biopsies were performed at time points ranging from 5 min to 7 hours to assess the selective accumulation of HAL, as shown by fluorescence images. Image analysis on frozen tissue sections was carried out using a Zeiss Axiophot image analysis system.
A total of 112 biopsies were obtained from 32 patients. From these biopsies approximately 2000 fluorescence images were produced. […] Immediately after the biopsies were taken, the tissue was quickly frozen in liquid nitrogen and stored at −70° C. prior to use in order to stop any formation/degradation of cellular porphyrins. Tissue sections were prepared in the dark to avoid photobleaching. The frozen tissue blocks were mounted in Tissue Tek embedding compound (BDH) and a series of sections were prepared using a cryostat. Tissue sections were mounted on glass slides and images were recorded with a grey-scale camera. A band pass filter (BP395-440 nm) was used for excitation, while a second band-pass filter was used to record the specific Pp fluorescence.

[3] = test system: bladder cancer cells from patient urine; assay: Detection of bladder cancer cells in urine; type: cell-based, human; conditions: 40 μg/ml or 0.15 mM, 4 hours at 37° C., blue light 390-440 nm
Procedure: Urine of a patient with bladder cancer was centrifuged (1500 rpm for 5 min) and resuspended into cell growth medium containing 10% fetal calf serum and HAL hydrochloride (40 μg/ml or 0.15 mM) for 4 hours at 37° C. in the dark. The cells fluoresced under blue light (390-440 nm) after being incubated with HAL HCl (FIG. 28). […] This was confirmed by cytology.

[4] = test system: Human transitional cell carcinoma cells (T24); assay: Induced fluorescence in T24 cells in vitro; type: cell-based
Procedure: Human transitional cell carcinoma cells (T24) were used. ALA and ALA esters were dissolved in growth medium not containing serum. Fluorescence was observed using an excitation wavelength of 410 nm and detecting emission at 640 nm.

[5] = test system: bladder carcinoma in situ (CIS) and other bladder tumor lesions; assay: HAL fluorescence detection of bladder lesions vs. white light cystoscopy; type: in vivo, human
Procedure: Photodynamic detection of bladder carcinoma in situ (CIS) (flat cancer lesions) after exposure to a hexyl aminolevulinate composition (8 mM HAL in PBS: 4.3 mM KH2PO4, 4.3 mM Na2HPO4, 120 mM NaCl, pH 6.0) for one hour was performed and compared to white light cystoscopy in patients with bladder cancer (FIG. 31).
About 50 ml of HAL solution was instilled into the bladder. The solution was allowed to remain in the bladder for one hour. After bladder evacuation, the bladder was inspected by using a cystoscope (Storz D-Light, Karl Storz, Tuttlingen, Germany) and mapped under white light followed by inspection and mapping of all fluorescing lesions using blue light (380-450 nm) (light of wavelength of about 405 nm could have been used as the PpIX absorption spectrum includes a maximum near 405 nm). After mapping of the lesions in white and blue light separately, biopsies and resected tissue were obtained of all lesions and suspicious areas. Finally, one biopsy from normal appearing urothelium (negative in white and blue light) was taken. Tissue material was prepared by the local pathlogist and examined by both local and a central pathologist to verify the diagnosis.
In another study, an HAL composition detected 98% of tumor lesions in patients (regardless of tumor type), whereas use of white light identified only 73% of the lesions. The HAL solution composition and instillation and cystoscopy procedure is described above. The cystoscopy findings were verified by examination (by a pathologist) of 5 random biopsies taken from each patient. There were a total of 143 verified tumors in 45 patients including carcinoma in situ (CIS) and Ta or T1 lesions. HAL cystoscopy was performed in 43 of the patients with a detection rate of 96% (43/45). White light cystoscopy was performed in 33 of the patients with a detection rate of 73% (33/45).

SMILES: CCCCCCOC(=O)CCC(=O)CN.Cl [HAL, n-hexyl 5-aminolevulinate hydrochloride]
- PpIX fluorescence ratios between BCC lesions and surrounding normal skin (selectivity) compared with free ALA [1]: more selectively induce PpIX in BCC lesions than free ALA
- fluorescence of cervical lesions after topical application ([2]; 0.5% (w/w) HAL hydrochloride cold-cream, hydrochloride): excellent fluorescence; also recorded: high and homogenous fluorescence in the lesions
- adverse reactions / tolerability ([2]; 0.5% cream applied to the cervix, patients, hydrochloride): No local or systemic adverse reactions; also recorded: well tolerated
- fluorescence after 5 minutes application ([2]; 0.5% cream, 5 minutes): low
- fluorescence throughout the lesion at application times of 30 minutes and longer ([2]; 0.5% cream, 30 minutes and longer): high and homogenous fluorescence throughout the lesion
- selectivity of fluorescence for precancerous lesions ([2]; 0.5% cream, cervical biopsies of CIN lesions): excellent selectivity for precancerous lesions
- selectivity at application time more than three hours ([2]; 0.5% cream, more than three hours): the selectivity was reduced
- selectivity after 1-2 hour application ([2]; HAL 0.5% cream, 1-2 hour): excellent
- fluorescence of urine cells under blue light [3]: only cancer cells fluoresced
- maximum fluorescence relative to the maximum induced by aminolevulinic acid ([4]; same conditions): nearly three times
- concentration inducing maximum fluorescence in cells in vitro ([4]; serum-free medium, excitation 410 nm, emission 640 nm): about 13 mM
- CIS lesion detection rate as verified by biopsies ([5]; 8 mM HAL in PBS, one hour instillation, 218 patients for analysis): 97%
- carcinoma in situ lesions identified in patients with CIS lesions only ([5]; 13 patients with CIS lesions only, 12/13): 92%
- detection rate of HAL cystoscopy (patients) ([5]; another study, 43/45): 96%
- tumor lesions detected (regardless of tumor type) ([5]; another study, 143 verified tumors in 45 patients): 98%
